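In this assay, cells in 96-well plates receive the compound at five concentrations for 48 hours. Endpoints are linearly interpolated between the surrounding concentrations. Abbreviation: GI50, concentration required for 50% inhibition of growth.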 Calls of active or inactive are those of the source. Rule as the data show it: active = GI50 up to about 1.1 µM and inactive = higher.
How the values were obtained:
Assay in all cases: inhibition of tumour cell growth, NCI panel, 48 h
[1] = test system: OVCAR-4
[2] = test system: U-251
[3] = test system: EKVX
[4] = test system: HOP-92
[5] = test system: ACHN
[6] = test system: OVCAR-8
[7] = test system: IGROV-1
[8] = test system: SR
[9] = test system: HCT-116
[10] = test system: SF-268
[11] = test system: NCI-H226
[12] = test system: SW-620
[13] = test system: MDA-N
[14] = test system: TK-10
[15] = test system: RXF 393
[16] = test system: OVCAR-3
[17] = test system: BT-549
[18] = test system: SNB-75
[19] = test system: HL-60
[20] = test system: A498

Measured: GI50

O=C(NCc1ccc(Cl)cc1)c1cc2sccc2nc1C(F)(F)F
inactive: [1] 19.8 µM | [2] 18.9 µM | [3] 34 µM | [4] 37.7 µM | [5] 20.6 µM | [6] 26.4 µM | [7] 29.6 µM | [8] 39.9 µM | [9] 33.3 µM | [10] 24.2 µM | [11] 19.6 µM | [12] 54.2 µM | [13] > 100 µM | [14] 33.7 µM | [15] 24 µM | [16] 26.9 µM | [17] 39.9 µM

Cc1cccc(Nc2nc3ccccc3nc2NS(=O)(=O)c2ccccc2)c1
inactive: [1] 2.14 µM | [18] 14.4 µM | [2] 14.6 µM | [3] 30.5 µM | [4] 11 µM | [5] 28.9 µM | [19] 13.8 µM | [6] 29.3 µM | [7] 19.9 µM | [8] 25.6 µM | [9] 27.4 µM | [10] 44.3 µM | [11] 70 µM | [12] 29.6 µM | [13] 42.9 µM | [14] 22.9 µM | [15] 27.7 µM | [16] 19 µM | [17] 40.1 µM

CC(C)N(C(C)C)S(=O)(=O)C[C@]12CC[C@H](CC13OCC(CS(=O)(=O)c1ccccc1)O3)C2(C)C (some centres undefined)
inactive: [20] 56.6 µM | [1] 40.8 µM | [18] 27.6 µM | [2] 52 µM | [3] 39.3 µM | [4] > 24.3 µM | [5] 47.8 µM | [19] 13 µM | [6] 47 µM | [7] > 28.7 µM | [9] 35.9 µM | [10] 59.2 µM | [11] 34.1 µM | [12] 45 µM | [13] 51.4 µM | [14] 44.9 µM | [15] 49 µM | [16] 31.3 µM | [17] > 85.3 µM

Cc1ccc(O)c(C2=CC(c3cccc(Br)c3)SC(=N)N2)c1 (centres undefined)
inactive: [1] 28.9 µM | [18] 19.5 µM | [2] 17.5 µM | [3] 21 µM | [4] 19 µM | [5] 23.3 µM | [19] 29 µM | [6] 35.2 µM | [7] 18.8 µM | [8] 17.1 µM | [9] 17.3 µM | [10] 28.8 µM | [11] 26.9 µM | [12] 28.4 µM | [13] 19.7 µM | [14] 19.6 µM | [15] 19.5 µM | [16] 39.5 µM | [17] 29.8 µM

Reference: ChEMBL document CHEMBL1201862, “PubChem BioAssay data set” (2004)
